Experimental data published in ChEMBL document CHEMBL5137069, “Discovery of Potent and Orally Bioavailable Pyridine N-Oxide-Based Factor XIa Inhibitors through Exploiting Nonclassical Interactions” (J Med Chem, 2022).
Values after ≈ are worked out from the molar mass of the structure shown. One block for each molecule: values may come before it.

How the values were obtained:
[1] = Clearance in Cynomolgus monkey assessed as liver blood flow at 5 mg/kg, po and 1 mg/kg, iv; type: ADME, organism-based, Macaca fascicularis; conditions: in vivo
[2] = Half-life in Sprague-Dawley rat at 10 mg/kg, po and 2 mg/kg, iv; type: ADME, organism-based; conditions: in vivo
[3] = Stability in rat liver microsomes assessed as half-life; type: ADME, Microsome
[4] = AUC in Sprague-Dawley rat at 10 mg/kg, po; type: ADME, organism-based; set-up: dose 10 mg/kg, route po; conditions: in vivo
[5] = Drug concentration in plasma of anesthetized New Zealand White rabbit model of AV shunt-induced thrombosis at 8.5 mg/kg, administered as iv bolus dose and subsequently followed by 10 mg/kg/hr as iv infusion from 20 min prior to 40 min after establishment of AV shunt by LC-MS/MS analysis; type: ADME, organism-based, Oryctolagus cuniculus; conditions: time 60 min
[6] = Half-life in Cynomolgus monkey at 5 mg/kg, po and 1 mg/kg, iv; type: ADME, organism-based, Macaca fascicularis; conditions: in vivo
[7] = Oral bioavailability in Beagle dog at 5 mg/kg; type: ADME, organism-based, Canis lupus familiaris; conditions: in vivo
[8] = Volume of distribution at steady state in Cynomolgus monkey at 5 mg/kg, po and 1 mg/kg, iv; type: ADME, organism-based, Macaca fascicularis; conditions: in vivo
[9] = Volume of distribution at steady state in Sprague-Dawley rat at 10 mg/kg, po and 2 mg/kg, iv; type: ADME, organism-based; conditions: in vivo
[10] = Equilibrium solubility of compound at pH 6.8 by HPLC analysis; type: physicochemical; conditions: buffer
[11] = AUC in Cynomolgus monkey at 1 mg/kg, iv; type: ADME, organism-based, Macaca fascicularis; set-up: dose 1 mg/kg, route iv; conditions: in vivo
[12] = Volume of distribution at steady state in Beagle dog at 5 mg/kg, po and 1 mg/kg, iv; type: ADME, organism-based, Canis lupus familiaris; conditions: in vivo
[13] = AUC in Sprague-Dawley rat at 2 mg/kg, iv; type: ADME, organism-based; set-up: dose 2 mg/kg, route iv; conditions: in vivo
[14] = AUC in Beagle dog at 5 mg/kg, po; type: ADME, organism-based, Canis lupus familiaris; set-up: dose 5 mg/kg, route po; conditions: in vivo
[15] = Equilibrium solubility of compound at pH 1.2 by HPLC analysis; type: physicochemical; conditions: buffer
[16] = AUC in Cynomolgus monkey at 5 mg/kg, po; type: ADME, organism-based, Macaca fascicularis; set-up: dose 5 mg/kg, route po; conditions: in vivo
[17] = Oral bioavailability in Cynomolgus monkey at 5 mg/kg; type: ADME, organism-based, Macaca fascicularis; conditions: in vivo
[18] = Oral Bioavailability in Sprague-Dawley rat at 10 mg/kg; type: ADME, organism-based; conditions: in vivo
[19] = Clearance in Beagle dog assessed as liver blood flow at 5 mg/kg, po and 1 mg/kg, iv; type: ADME, organism-based, Canis lupus familiaris; conditions: in vivo
[20] = Drug concentration in plasma of anesthetized New Zealand White rabbit model of AV shunt-induced thrombosis at […], administered as iv bolus dose and subsequently followed by 0.8 mg/kg/hr as iv infusion from 20 min prior to 40 min after establishment of AV shunt by LC-MS/MS analysis; type: ADME, organism-based, Oryctolagus cuniculus; conditions: time 60 min
[21] = AUC in Beagle dog at 1 mg/kg, iv; type: ADME, organism-based, Canis lupus familiaris; set-up: dose 1 mg/kg, route iv; conditions: in vivo
[22] = Stability in human liver microsomes assessed as half-life; type: ADME, Microsome
[23] = Clearance in Sprague-Dawley rat assessed as liver blood flow at 10 mg/kg, po and 2 mg/kg, iv; type: ADME, organism-based; conditions: in vivo
[24] = Hal-life in Beagle dog at 5 mg/kg, po and 1 mg/kg, iv; type: ADME, organism-based, Canis lupus familiaris; conditions: in vivo
[25] = Oral bioavailability in Sprague-Dawley rat at 10 mg/kg administered as PEG-400/water/EtOH (7:2:1) formulation; type: ADME, organism-based; conditions: in vivo
[26] = Oral bioavailability in Sprague-Dawley rat at 10 mg/kg administered as 20% HPbCD formulation; type: ADME, organism-based; conditions: in vivo

- LBF [1]: 58%
- half-life [2]: 1.4 h
- half-life [3]: > 3.08 h
- AUC [4]: 10 µM·h
- concentration at 1 h [5]: 7.5 µM
- half-life [6]: 1 h
- bioavailability [7]: 80.5%
- Vdss [8]: 1.5 L/kg
- Vdss [9]: 0.8 L/kg
- solubility thermodynamic [10]: 172 µM (≈ 99.6 µg/mL)
- AUC [11]: 1.1 µM·h
- Vdss [12]: 1.5 L/kg
- AUC [13]: 5.5 µM·h
- AUC [14]: 14.7 µM·h
- solubility thermodynamic [15]: 81 µM (≈ 47 µg/mL)
- AUC [16]: 2.5 µM·h
- bioavailability [17]: 43%
- bioavailability [18]: 36.4%
- LBF [19]: 25%
- concentration at 1 h [20]: 1.08 µM
- AUC [21]: 3.7 µM·h
- half-life [22]: > 3.08 h
- LBF [23]: 12%
- half-life [24]: 2 h
SMILES: Cn1nncc1-c1cnn([C@H](CCOC(F)F)c2ccc(-c3c(-n4cc(Cl)nn4)ccc(Cl)c3F)c[n+]2[O-])c1

- half-life [3]: > 3.08 h
- half-life [22]: > 3.08 h
SMILES: Cn1nncc1-c1cnn([C@H](CCOC(F)F)c2ccc(-c3c(-n4cnnn4)ccc(Cl)c3F)c[n+]2[O-])c1

- half-life [3]: 2.42 h
- half-life [22]: > 3.08 h
SMILES: Cn1nncc1-c1cnn([C@H](CCOC(F)F)c2ccc(-c3c(-n4cc(C(F)(F)F)nn4)ccc(Cl)c3F)c[n+]2[O-])c1

- half-life [3]: 0.783 h
- half-life [22]: 0.9 h
SMILES: COCC[C@H](c1ccc(-c2c(-n3cc(Cl)nn3)ccc(Cl)c2F)c[n+]1[O-])n1cc(-c2cnnn2C)cn1

- half-life [3]: 0.833 h
- half-life [22]: 2.83 h
SMILES: COCC[C@H](c1ccc(-c2c(-n3cnnn3)ccc(Cl)c2F)c[n+]1[O-])n1cc(-c2cnnn2C)cn1

- half-life [3]: 1.47 h
- half-life [22]: > 3.08 h
SMILES: Cn1nncc1-c1cnn([C@H](Cn2cc(F)cn2)c2ccc(-c3c(-n4cc(Cl)nn4)ccc(Cl)c3F)c[n+]2[O-])c1

- bioavailability [25]: 59.6%
SMILES: COC(=O)Nc1ccc(-c2cnn([C@H](CC3CC3)c3ccc(-c4c(-n5cnnn5)ccc(Cl)c4F)c[n+]3[O-])c2)cc1

- half-life [3]: 2.33 h
- half-life [22]: > 3.08 h
SMILES: Cn1nncc1-c1cnn([C@H](Cc2ccn(C(F)F)n2)c2ccc(-c3c(-n4cc(C(F)(F)F)nn4)ccc(Cl)c3F)c[n+]2[O-])c1

- half-life [3]: 0.8 h
- half-life [22]: > 3.08 h
SMILES: Cn1nncc1-c1cnn([C@H](Cc2ccc(F)cc2)c2ccc(-c3c(-n4cnnn4)ccc(Cl)c3F)c[n+]2[O-])c1

- half-life [3]: 1.28 h
- half-life [22]: 1.47 h
SMILES: Cn1nncc1-c1cnn([C@H](Cc2ccc(F)cc2)c2ccc(-c3c(-n4cc(Cl)nn4)ccc(Cl)c3F)c[n+]2[O-])c1

- half-life [3]: > 3 h
- half-life [22]: > 3 h
SMILES: Cn1nncc1-c1cnn([C@H](CC2CC2)c2ccc(-c3c(-n4cnnn4)ccc(Cl)c3F)c[n+]2[O-])c1

- half-life [3]: 1.07 h
- half-life [22]: 0.6 h
SMILES: Cn1cncc1-c1cnn([C@H](CC2CC2)c2ccc(-c3c(-n4cnnn4)ccc(Cl)c3F)c[n+]2[O-])c1

- bioavailability [26]: 37.3%
SMILES: COC(=O)Nc1ccc(-c2cnn(C(CC3CC3)c3ccc(-c4cc(Cl)ccc4-n4cnnn4)c[n+]3[O-])c2)cc1 (racemic)

- half-life [3]: 0.117 h
- half-life [22]: 0.05 h
SMILES: [O-][n+]1cc(-c2c(-n3cnnn3)ccc(Cl)c2F)ccc1C(CC1CC1)n1cc(-c2cncs2)cn1 (racemic)

- half-life [3]: 0.0333 h
- half-life [22]: 0.0333 h
SMILES: [O-][n+]1cc(-c2c(-n3cnnn3)ccc(Cl)c2F)ccc1C(CC1CC1)n1cc(-c2c(F)cncc2Cl)cn1 (racemic)

- half-life [3]: 0.45 h
- half-life [22]: 0.267 h
SMILES: Cn1nccc1-c1cnn(C(CC2CC2)c2ccc(-c3c(-n4cnnn4)ccc(Cl)c3F)c[n+]2[O-])c1 (racemic)

- half-life [3]: 0.3 h
- half-life [22]: 0.183 h
SMILES: Cc1ncsc1-c1cnn(C(CC2CC2)c2ccc(-c3c(-n4cnnn4)ccc(Cl)c3F)c[n+]2[O-])c1 (racemic)

- half-life [3]: > 3 h
- half-life [22]: > 3 h
SMILES: Nc1ccc(-c2cnn(C(CC3CC3)c3ccc(-c4c(-n5cnnn5)ccc(Cl)c4F)c[n+]3[O-])c2)c(F)n1 (racemic)

- half-life [3]: 1.8 h
- half-life [22]: 1.67 h
SMILES: Cc1nc(N)ccc1-c1cnn(C(CC2CC2)c2ccc(-c3c(-n4cnnn4)ccc(Cl)c3F)c[n+]2[O-])c1 (racemic)
